Experimental data taken from patent US7528124B2, “1,3-dihydro-2H-indol-2-one derivative” (Taisho Pharmaceutical Co., Ltd., priority 2003, dated 2009).
Where two headings read alike, the source gives them in different places.

Experiment: Measurement of drug concentration in plasma and brain following oral administration to rats (LC/MS/MS)
Format: in vivo, Sprague-Dawley rats
Conditions: rat; for concentration at 1 h: Table 2, 1 hour after administration
Method: Measurement of Drug Concentration in Plasma and Brain following Oral Administration to Rats
The compound of Example 1 and compound A (WO01/55130, listed in EXEMPLE 1) were orally administered to Sprague-Dawley rats (male, 8 weeks) at a dose of 5 mL/kg (10 mg/kg) as solutions (each compound was dissolved with 0.03 mol/L HCl containing 5% Cremophor EL, and concentration was prepared by 2 mg/ml).
Blood was collected from the tail vein at 1 and 2 hours after administration. Immediately the brain was excised, 20% homogenate was prepared with distilled water, for assay sample. Similarly, 0.3 mL of blood was collected from the tail vein at 2, 4, 8, and 24 hours following administration, and the plasma following centrifugation was used as a sample.
The concentrations of the compound of Example 1 and compound A in plasma were measured using liquid chromatography tandem mass spectrometry (LC/MS/MS). Specifically, 200 μL of acetonitrile was added to 50 μL of plasma or brain homogenate, vortex mixed and centrifuged. The resulting supernatant was put in a liquid chromatograph with an Agilent Zorbax SB-C18 5 μm column (50 mm long, 2.1 mm in diameter). The elute was 0.1% acetic acid/acetonitrile containing 0.1% acetic acid. The MS/MS detection were performed using a Sciex API3000 LC/MS/MS system with ESI for ionization, in positive ions and MRM mode for monitoring. The m/z 632→472 and m/z 630→472 were monitored for the compound of Example 1 and compound A, respectively.
The concentration of plasma and brain at each sampling point and mean plasma levels after oral administration were shown in Table 2 and Table 3, respectively.

concentration at 1 h (male, Sprague-Dawley, brain, po, 10 mg/kg, brain homogenate, average of three, read-out: Drug concentration, brain, 1 hour): 35 ng/g
concentration at 1 h (male, Sprague-Dawley, plasma, po, 10 mg/kg, average of three, read-out: Drug concentration, plasma, 1 hour): 440 ng/mL
concentration at 2 h (male, Sprague-Dawley, plasma, po, 10 mg/kg, Table 2, 2 hours after administration, average of three, read-out: Drug concentration, plasma, 2 hours): 219 ng/mL
concentration at 2 h (male, Sprague-Dawley, plasma, po, 10 mg/kg, Table 3, serial tail vein sampling, 2 hours, average of three, read-out: Drug concentration in plasma, 2 hours): 139 ng/mL
concentration at 4 h (male, Sprague-Dawley, plasma, po, 10 mg/kg, Table 3, serial tail vein sampling, 4 hours, average of three): 51 ng/mL
concentration at 8 h (male, Sprague-Dawley, plasma, po, 10 mg/kg, Table 3, serial tail vein sampling, 8 hours, average of three): 10 ng/mL
concentration at 2 h (male, Sprague-Dawley, Table 2, oral 10 mg/kg, 2 hours after administration, brain homogenate, average of three, ND: below the quantification detection limit of 5 ng/mL, read-out: Drug concentration, brain, 2 hours): 11 ng/g
plasma levels compared with compound A (oral 10 mg/kg, after 2 hours): higher plasma levels
brain levels compared with compound A (oral 10 mg/kg, at 1 and 2 hours): higher than those of compound A
SMILES: COc1ccc(S(=O)(=O)N2C(=O)C(c3ccccc3OC)(N3C[C@H](F)C[C@H]3C(=O)N(C)C)c3cc(Cl)ccc32)c(OC)c1 (single isomer, unassigned) [Example 1]
